# Measured values as given in patent US4784845A, “Emulsion compostions for the parenteral administration of sparingly water soluble ionizable hydrophobic drugs” (American Cyanamid Company, priority 1985, dated 1988).
# Counter-ions that a name gives are not always drawn.
# Tests used:
# [1] = cited from earlier work; for Ambient Solution pH: commercial drug solution; for pH beyond which significant precipitation occurs: intravenous infusion, commercial drugs
# soft tissues = conditions: extravasation about the site of attempted intravenous administration; cited from earlier work
# [2] = Absorption and excretion of antiarthritic triazine candidate dosage forms; conditions: in vivo
# Experimental: (§1) Because the antiarthritic triazine compound is a base, organic acids as counter-ions were studied to improve drug solubility. […] Additional drug complexes were prepared with various organic and inorganic acids. […] The inherent insolubility of the drug appears to be responsible, to some extent, for the preceding results. In order to overcome the drug insolubility problem one of the objectives considered was to design a dosage form which would improve drug absorption when given by intravenous, intramuscular or intra-articular injection.
# physchem = format: physicochemical
# Experimental: as §1
# [3] = test system: Marginal Ear Vein of Rabbits; assay: Peripheral vein irritation on intravenous infusion, rabbits (Table IV); format: in vivo, rabbit; parameters: key: +: Positive or present; -: Negative or absent; conditions: 2 hour i.v. infusion, gross postmortem one day after
# Experimental: The emulsion drug delivery system formulation of Emulsions 3 and 4 in Table III was tested in two species of animals, for peripheral vein irritation in order to determine the occurrence of local injection site adverse reactions. […] The two species of animals used were rabbits and dogs. The formulations were given intravenously in a peripheral vein using a Butterfly infusion set (Becton, Dickenson Co., Inc., Rutherford, N.J.). The marginal ear vein was used in the rabbit and the saphenous or the cephalic vein of the leg was used in the dog.
# The formulations were given by slow intravenous infusion using a Sage syringe pump (Sage Instruments, Orion Research Inc., Cambridge, MA) over a 2 hour period. The animals were restrained but unanesthetized during the infusion. After the infusion, the animals were returned to their cages and offered food. The animals were sacrificed one day after the infusion.
# At sacrifice, the infused vein was opened from the point of infusion and cardiad for several centimeters. The condition of the vein, its intima and the surrounding parenchyma, as well as the presence or absence of orange-yellow material and/or clots in the vein, were recorded in Tables IV and V.
# [4] = Solubility of bisantrene in selected media and biological fluids (Table IB); format: physicochemical
# [5] = Partitioning of bisantrene in blood; format: in vitro ADME; conditions: inferred from solubility characteristics and other information
# Source text: In serum and plasma, however, due to increase in the pH, the solubility drops considerably and this may be the reason that the drug precipitates at the point of infusion. […] Thus, if the drug can be kept in solution long enough to allow complete dilution in the entire blood volume, then the partitioning should take place without the intermediate precipitation.
# [6] = cited from earlier work
# [7] = challenge tests, benzyl alcohol vs parabens as preservative; cited from earlier work
# mammals = conditions: aqueous solution, intravenous; cited from earlier work
# [8] = dissolved in oil phase of soybean oil emulsion, parenteral; cited from earlier work
# [9] = propylene glycol, benzyl alcohol and ethyl alcohol as solvents; cited from earlier work
# normal human subjects = conditions: single doses of 2.0 g, 24 subjects, cited from earlier work
smiles,measurement,setting,value
"CC(C)NCC(O)COc1cccc2ccccc12 (racemic) [Inderal, propanolol]",Ambient Solution pH,[1],3.50
same,pH beyond which significant precipitation occurs,[1],6.00
COc1cccc2c1C(=O)c1c(O)c3c(c(O)c1C2=O)C[C@@](O)(C(=O)CO)C[C@@H]3O[C@H]1C[C@H](N)[C@H](O)[C@H](C)O1 [Adriamycin],tissue damage on extravasation,soft tissues,massive tissue necrosis
"CC(C)(C)C(C)(C)Nc1nc(NC(C)(C)C(C)(C)C)nc(N2CC3CCC(CC3)C2)n1 [Antiarthritic Triazine Compound, 3-[4,6-bis[(1,1-2,2-tetramethylpropyl)amino]-s-triazin-2-yl]-3-azabicyclo[3.2.2]nonane]",parenteral absorption,[2],negligible
same,oral absorption,[2]; po,slightly better
same,dose excreted,"[2]; oral, candidate dosage forms, preliminary, read-out: compound excreted in the feces",~90%
same,increase of solubility,physchem,0.5 to 1.0 mg/mL
same,solubility,physchem,300 µg/mL
same,solubility in water,physchem,insignificant solubility in water
same,solubility range,physchem,0.5 to 1.5 mg/mL
same,solubility,"physchem; 1,3-butylene glycol, organic solvent or mixture",300 µg/mL
same,solubility,"physchem; benzyl alcohol, organic solvent or mixture",800 µg/mL
same,solubility,"physchem; benzyl benzoate, organic solvent or mixture",1300 µg/mL
same,solubility,physchem; brij 35 2% solution,50 µg/mL
same,solubility,"physchem; cremophor el, organic solvent or mixture",200 µg/mL
same,solubility,"physchem; dimethyl acetamide, organic solvent or mixture",700 µg/mL
same,solubility,"physchem; emulphor el-620p, organic solvent or mixture",< 100 µg/mL
same,solubility,"physchem; ethanol usp, organic solvent or mixture",< 100 µg/mL
same,solubility,"physchem; propylene glycol isostearate, organic solvent or mixture",1500 µg/mL
same,solubility,"physchem; propylene glycol, organic solvent or mixture",< 100 µg/mL
same,solubility,"physchem; triacetin, organic solvent or mixture",100 µg/mL
"C[C@H](N)[C@H](O)c1cccc(O)c1 [Aramine, metaraminol]",Ambient Solution pH,[1],3.60
same,pH beyond which significant precipitation occurs,[1],5.80
"OCCOCCN1CCN(C(c2ccccc2)c2ccc(Cl)cc2)CC1 (stereo not drawn) [Atarax, hydroxyzine]",Ambient Solution pH,[1],5.60
same,pH beyond which significant precipitation occurs,[1],6.40
C(=N\NC1=NCCN1)/c1c2ccccc2c(/C=N/NC2=NCCN2)c2ccccc12 [Bisantrene HCl],External: Reddened,[3]; sex F,+
same,External: Yellow Deposit,[3]; sex F,+
same,Subcutaneous: Hemorrhage,[3]; sex F,-
same,Vascular Lumen: Yellow Deposit,[3]; sex F,+
same,External: Reddened,[3]; sex M,-
same,External: Swollen,[3]; sex M,-
same,External: Yellow Deposit,[3]; sex M,-
same,Subcutaneous: Edema,[3]; sex M,+
same,Subcutaneous: Hemorrhage,[3]; sex M,-
same,Subcutaneous: Yellow Deposit,[3]; sex M,-
same,Vascular Lumen: Blood Clot,[3]; sex M,-
same,Vascular Lumen: Yellow Deposit,[3]; sex M,+
"C(=N\NC1=NCCN1)/c1c2ccccc2c(/C=N/NC2=NCCN2)c2ccccc12 [Bisantrene, bis(2-imidazolen-2-ylhydrazone)-9,10-anthracenedicarboxaldehyde]",solubility,"[4]; 5% dextrose solution, pH 4.6",10000 µg/mL
same,solubility,"[4]; Plasma, pH 7.7-8.2",90 µg/mL
same,solubility,"[4]; Whole Blood, pH 7.9",400 µg/mL
same,solubility,"[4]; normal saline, pH 5.5",2000 µg/mL
same,solubility,"[4]; serum, pH 7.8",27 µg/mL
same,partitioning into erythrocytes,[5],eventually partitions into the erythrocytes
"N#CC(CCN1CCC(C(N)=O)(N2CCCCC2)CC1)(c1ccccc1)c1ccccc1 [Dipidolor, piritramide]",Ambient Solution pH,[1],3.97
same,pH beyond which significant precipitation occurs,[1],4.50
O=C(CCCN1CC=C(n2c(=O)[nH]c3ccccc32)CC1)c1ccc(F)cc1 [Droperidol],Ambient Solution pH,[1],3.24
same,pH beyond which significant precipitation occurs,[1],5.83
"CC(=O)Nc1ccc(OCC(O)CNC(C)C)cc1 (stereo not drawn) [Eraldin, practolol]",Ambient Solution pH,[1],5.80
same,pH beyond which significant precipitation occurs,[1],7.40
"COc1ccc2c(c1)N(C[C@H](C)CN(C)C)c1ccccc1S2 [Nozinan, levomepromize]",Ambient Solution pH,[1],4.38
same,pH beyond which significant precipitation occurs,[1],6.50
"OCCN(CCO)c1nc(N2CCCCC2)c2nc(N(CCO)CCO)nc(N3CCCCC3)c2n1 [Persantine, dipyridamole]",Ambient Solution pH,[1],3.12
same,pH beyond which significant precipitation occurs,[1],5.10
"CC(CN1c2ccccc2Sc2ccccc21)N(C)C (stereo not drawn) [Phenergan, promethazine]",Ambient Solution pH,[1],5.68
same,pH beyond which significant precipitation occurs,[1],6.42
"CN(C)CCCN1c2ccccc2Sc2ccccc21 [Prazine, promazine]",Ambient Solution pH,[1],4.85
same,pH beyond which significant precipitation occurs,[1],7.10
OCc1ccccc1 [benzyl alcohol],acute systemic toxicity,"[6]; 0.9% (w/v), intravenous",absence of acute systemic toxicity
same,half-life,"[6]; in vivo, iv",1.5 h
same,volume of distribution,[6]; in vivo,widespread tissue dissemination
same,antibacterial activity,[7],higher antibacterial activity
C(=N\NC1=NCCN1)/c1c2ccccc2c(/C=N/NC2=NCCN2)c2ccccc12 [bisantrene dihydrochloride],chemical phlebitis,mammals,chemical phlebitis
CC1CC(OC(=O)C(O)c2ccccc2)CC(C)(C)C1 (stereo not drawn) [cyclandelate],pharmacological effects compared with water solution of the sodium salts,[8],nearly equal
CN1C(=O)CN=C(c2ccccc2)c2cc(Cl)ccc21 [diazepam],local reactions upon intravenous injection,[9],"may not only cause pain upon intravenous injection, but also thrombophlebitis"
same,pharmacological effects compared with water solution of the sodium salts,[8],nearly equal
C[C@H]1C[C@@H]2[C@H]([C@@H](O)C[C@@]3(C)[C@H]2CC[C@]3(O)C(=O)COC(=O)CCC(=O)O)[C@@]2(C)C=CC(=O)C=C12 [methylprednisolone sodium succinate],tolerability / side effects,normal human subjects; benzyl alcohol or paraben preservative,well tolerated and no important drug-related side effects were encountered
same,"changes in vital signs, electrocardiograms, electroencephalograms, or laboratory parameters",normal human subjects,No clinically significant changes
same,expected corticosteroid induced changes,normal human subjects,reversible
O=[N+]([O-])OCC(CO[N+](=O)[O-])O[N+](=O)[O-] [nitroglycerin],pharmacological effects compared with water solution of the sodium salts,[8],nearly equal
